Results taken from patent publication US20040229898A1, “Cyclic bis-compounds clearing malformed proteins” (priority 2001, published 2004).
Entries after “also recorded” stand apart in the source; their conditions may differ. Read-outs that look alike come from different tables or passages of the source.

How the values were obtained:
[1] = test system: N2a cells; test: Cell viability assay (MTT) in uninfected N2a cells; assay type: cell-based, mouse; conditions: for % Cell Viability (±SEM) 50 nM / % Cell Viability (±SEM) 200 nM / % Cell Viability (±SEM) 500 nM: seven days, N2a, MTT, versus untreated control; for % Cell Viability (±SEM) 500 nM / Cytotoxicity for uninfected neuroblastoma (N2a) cells, in words: 500 nM
Description: Uninfected N2a cells were identically seeded onto six-well plates containing MEM (3 mL, supplemented as above). […] Medium was exchanged, together with the compound, every three days. After seven days, thiazolyl blue (300 μL, MTT, 3-[4,5-dimethylthiazol-2-yl]-2,5-diphenyltetrazolium bromide, Sigma-Aldrich) in PBS (5 mgmL^−1), previously sterile filtered, was added. Cells were incubated at 37° C. for 5 h. The medium was removed, and DMSO (3 mL) was added and repeatedly aspirated to solubilize the converted dye.

[2] = test system: MRC-5 fibroblast cells; conditions: cited from earlier work
[3] = target: PrP^Sc in ScGT1 cells (Mus musculus, UniProt P04925); assay type: cell-based
[4] = test system: neuroblastoma cells; conditions: mouse
[5] = patients, cited from earlier work

Chain of PrP^Sc in ScGT1 cells (P04925 23-230 limits assumed): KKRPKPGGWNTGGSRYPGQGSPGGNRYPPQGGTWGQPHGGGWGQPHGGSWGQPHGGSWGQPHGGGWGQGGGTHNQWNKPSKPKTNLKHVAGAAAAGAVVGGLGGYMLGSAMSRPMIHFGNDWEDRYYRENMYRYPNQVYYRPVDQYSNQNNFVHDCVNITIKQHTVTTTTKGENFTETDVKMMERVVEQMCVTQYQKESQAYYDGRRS

SMILES	% Cell Viability (±SEM) 50 nM [1]	% Cell Viability (±SEM) 200 nM [1]	% Cell Viability (±SEM) 500 nM [1]	further results
COc1ccc2nc3cc(Cl)ccc3c(NCCCCNc3c4ccc(Cl)cc4nc4ccc(OC)cc34)c2c1 [Compound 1]	100(±9) %	100(±9) %	100(±6) %	
COc1ccc2nc3cc(Cl)ccc3c(NCCCCCCNc3c4ccc(Cl)cc4nc4ccc(OC)cc34)c2c1 [Compound 2]	90(±3) %	96(±3) %	82(±3) %	
COc1ccc2nc3cc(Cl)ccc3c(NCCCCCCCCNc3c4ccc(Cl)cc4nc4ccc(OC)cc34)c2c1 [Compound 3]	100(±4) %	100(±2) %	97(±6) %	
COc1ccc2nc3cc(Cl)ccc3c(NCCCCCCCCCCNc3c4ccc(Cl)cc4nc4ccc(OC)cc34)c2c1 [Compound 4]	99(±21) %	95(±21) %	90(±17) %	
COc1ccc2nc3cc(Cl)ccc3c(NCCNCCNc3c4ccc(Cl)cc4nc4ccc(OC)cc34)c2c1 [Compound 5]	100(±20) %	100(±9) %	100(±18) %	
COc1ccc2nc3cc(Cl)ccc3c(NCCCNCCCNc3c4ccc(Cl)cc4nc4ccc(OC)cc34)c2c1 [Compound 6]	98(±5) %	33(±1) %	1(±1) %	
COc1ccc2nc3cc(Cl)ccc3c(NCCNCCCNCCNc3c4ccc(Cl)cc4nc4ccc(OC)cc34)c2c1 [Compound 8]	100(±13) %	23(±10) %	1(±1) %	
COc1ccc2nc3cc(Cl)ccc3c(NCCCNCCCNCCCNc3c4ccc(Cl)cc4nc4ccc(OC)cc34)c2c1.Cl [Compound 9]	92(±7) %	16(±7) %	10(±2) %	
COc1ccc2nc3cc(Cl)ccc3c(NCCCN3CCN(CCCNc4c5ccc(Cl)cc5nc5ccc(OC)cc45)CC3)c2c1 [Compound 11, (6-chloro-2-methoxy-acridin-9-yl)-(3-{4-[3-(6-chloro-2-methoxy-acridin-9-ylamino)-propyl]-piperazin-1-yl}-propyl)-amine]	94(±11) %	89(±9) %	79(±1) %	Cytotoxicity for uninfected neuroblastoma (N2a) cells, in words [1]: not cytotoxic; cytotoxicity to MRC-5 fibroblast cells versus non-constrained polyamine-linked bis-acridines (e.g., 7) [2]: less cytotoxic; reduction of PrP^Sc in ScGT1 cells, in words ([3]; 100 nM to 500 nM, Western blot): dose-dependent manner; curing of ScGT1 cells after one-week incubation ([3]; 0.5 μM or 1.0 μM, one week): could be cured of PrP^Sc; also recorded: absence of PK-resistant PrP; re-infection of cured ScGT1 cells with prion inoculum ([3]; cured cells incubated with prion inoculum): could subsequently be re-infected; also recorded: decrease the capacity of ScGT1 cells to be re-infected; also recorded: PrP^Sc was detected
COc1ccc2nc3cc(Cl)ccc3c(NCCOCCOCCNc3c4ccc(Cl)cc4nc4ccc(OC)cc34)c2c1 [Compound 13, N,N′-Bis-(6-chloro-2-methoxy-acridin-9-yl)-1,8-diamino-3,6-dioxaoctane]	97(±8) %	90(±9) %	98(±11) %	Cytotoxicity for uninfected neuroblastoma (N2a) cells, in words [1]: not cytotoxic
COc1ccc2nc3cc(Cl)ccc3c(NCCCN(C)CCCNc3c4ccc(Cl)cc4nc4ccc(OC)cc34)c2c1 [Compound 14]	73(±2) %	59(±8) %	1(±1) %	
CCCN(CCCCNc1c2ccc(Cl)cc2nc2ccc(OC)cc12)CCCNc1c2ccc(Cl)cc2nc2ccc(OC)cc12 [Compound 15, N-(6-Chloro-2-methoxy-acridin-9-yl)-N′-[3-(6-chloro-2-methoxy-acridin-9-ylamino)-propyl]-N′-propyl-butane-1,4-diamine]	100(±5) %	77(±4) %	0(±1) %	
COc1ccc2nc3cc(Cl)ccc3c(NCCCCN(CCCNc3c4ccc(Cl)cc4nc4ccc(OC)cc34)C(=O)[C@H](C)N)c2c1 [Compound 16]	100(±22) %	59(±13) %	0(±1) %	
COc1ccc2nc3cc(Cl)ccc3c(NCCCCN(CCCNc3c4ccc(Cl)cc4nc4ccc(OC)cc34)C(=O)C(C)NC(=O)OC(C)(C)C)c2c1 (stereo not drawn) [Compound 17, (1-{[4-(6-chloro-2-methoxy-acridin-9-ylamino)-butyl]-[3-(6-chloro-2-methoxy-acridin-9-ylamino)-propyl]-carbamoyl}-ethyl)-carbamic acid tert-butyl ester]	98(±12) %	85(±6) %	84(±3) %	Cytotoxicity for uninfected neuroblastoma (N2a) cells, in words [1]: not cytotoxic
COc1ccc2nc3cc(Cl)ccc3c(NCCCCN(CCCNc3c4ccc(Cl)cc4nc4ccc(OC)cc34)C(=O)CNC(=O)[C@H](C)N)c2c1 [Compound 18]	96(±4) %	93(±1) %	0(±1) %	
COc1ccc2nc3cc(Cl)ccc3c(NCCCCN(CCCNc3c4ccc(Cl)cc4nc4ccc(OC)cc34)C(=O)CNC(=O)[C@H](C)NC(=O)OC(C)(C)C)c2c1 [Compound 19]	88(±18) %	78(±13) %	70(±12) %	
COc1ccc2nc3cc(Cl)ccc3c(NCCCCNCCCNc3c4ccc(Cl)cc4nc4ccc(OC)nc34)c2n1.Cl [Compound 20]	100(±15) %	100(±9) %	88(±8) %	Cytotoxicity for uninfected neuroblastoma (N2a) cells, in words [1]: nontoxic
COc1ccc2nc3cc(Cl)ccc3c(NCCCCCCCCNc3c4ccc(Cl)cc4nc4ccc(OC)nc34)c2n1 [Compound 21, N,N′-Bis-(7-chloro-2-methoxy-benzo[b][1,5]naphthyridin-10-yl)-octane-1,8-diamine]	95(±3) %	100(±6) %	96(±5) %	melting point: 114 to 115 °C
CN(C)CCCN1c2ccccc2Sc2ccc(Cl)cc21 [chlorpromazine]				decrease in cell population [4]: 50%
CSc1ccc2c(c1)N(CCC1CCCCN1C)c1ccccc1S2 (stereo not drawn) [thioridazine]				brain concentration ([5]; 300 mg daily): 20 µM; brain concentration ([5]; daily oral dosage of 800 mg, post mortem brain samples): more than 80 μM
